Data as given in US8168832B2, “2,4,6-trialkylphenyl substituted cyclopentane-1,3-dione” (Bayer Cropscience AG, priority 2006, dated 2012).

Tested on: crop plants (cereal)
Experiment: Container trials with cereal in the greenhouse, mefenpyr 1 day prior to herbicide application (Example B, use of safeners)
Assay type: in vivo
Conditions: without safener
Experimental: Seeds of monocotyledonous and dicotyledonous weed and crop plants are placed into sandy loam in wood fiber pots or in plastic pots, covered with soil and cultivated in a greenhouse, during the vegetation period also outdoors outside of the greenhouse, under good growth conditions. 2 to 3 weeks after sowing, the test plants are treated at the one- to three-leaf stage. The test compounds, formulated as wettable powders (WP) or liquid (EC), are, in various dosages at a water application rate of 300 l/ha (converted), with wetting agent (0.2 to 0.3%) added, sprayed onto the plants and the surface of the soil. […]
If it is additionally to be tested as to whether safeners can improve the plant compatibility of test substances in the case of crop plants, the following options are used for applying the safener: • seeds of the crop plants are, before sowing, dressed with the safener substance (the amount of safener stated in percent, based on the weight of the seed) • before the application of the test substances, the crop plants are sprayed with the safener at a certain application rate per hectare (usually 1 day before the application of the test substances) • the safener is applied together with the test substance as a tank mix (the amount of safener is stated in g/ha or as a ratio, based on the herbicide). • By comparing the effect of test substances on crop plants without or with safener treatment, it is possible to assess the effect of the safener substance.
Container Trials with Cereal in the Greenhouse
Mefenpyr 1 Day Prior to Herbicide Application

[1] = 10 days after application, 25 g of a.i./ha
[2] = 10 days after application, 50 g of a.i./ha
[3] = 10 days after application, 100 g of a.i./ha
[4] = 28 days after application, 25 g of a.i./ha
[5] = 28 days after application, 50 g of a.i./ha
[6] = 28 days after application, 100 g of a.i./ha
[7] = 28 days after application, 12.5 g of a.i./ha

CCc1cc(C)cc(CC)c1C1=C(O)C2CC3OC(C)(C)OC3CC2C1=O (mixture of isomers) [I-a-13]
Summer barley observed (%) [1]: 30% | Summer wheat observed (%) [1]: 50% | Summer barley observed (%) [2]: 50% | Summer wheat observed (%) [2]: 80% | Summer barley observed (%) [3]: 60% | Summer wheat observed (%) [3]: 80%

CCc1cc(C)cc(CC)c1C1=C(OC(=O)C(C)C)[C@H]2CCCC[C@H]2C1=O (relative stereo) [I-b-23]
Summer wheat observed (%) (10 days after application, 12.5 g of a.i./ha): 30% | Summer barley observed (%) [1]: 30% | Summer wheat observed (%) [1]: 40% | Summer barley observed (%) [2]: 60% | Summer wheat observed (%) [2]: 70% | Summer barley observed (%) [3]: 60% | Summer wheat observed (%) [3]: 80%

CCc1cc(C)cc(CC)c1C1=C(OC(=O)COC)[C@H]2CCCC[C@H]2C1=O (relative stereo) [I-b-25]
Summer wheat observed (%) [4]: 10% | Summer barley observed (%) [5]: 40% | Summer wheat observed (%) [5]: 50% | Summer barley observed (%) [6]: 95% | Summer wheat observed (%) [6]: 70%

CCc1cc(C)cc(CC)c1C1=C(OC(=O)COC)[C@H]2CCCC[C@@H]2C1=O (relative stereo) [I-b-27]
Summer wheat observed (%) [7]: 10% | Summer wheat observed (%) [4]: 20% | Summer barley observed (%) [5]: 20% | Summer wheat observed (%) [5]: 40% | Summer barley observed (%) [6]: 50% | Summer wheat observed (%) [6]: 70%

CCc1cc(C)cc(CC)c1C1=C(OC(=O)C(C)C)[C@H]2CCCC[C@@H]2C1=O (relative stereo) [I-b-28]
Summer barley observed (%) [7]: 20% | Summer wheat observed (%) [7]: 10% | Summer barley observed (%) [4]: 30% | Summer wheat observed (%) [4]: 70% | Summer barley observed (%) [5]: 75% | Summer wheat observed (%) [5]: 80%

CCc1cc(C)cc(C)c1C1C(=O)[C@H]2CCCC[C@@H]2C1=O [I-a-1]
Summer barley observed (%) [7]: 5% | Summer wheat observed (%) [7]: 10% | Summer barley observed (%) [4]: 50% | Summer wheat observed (%) [4]: 40% | Summer barley observed (%) [5]: 70% | Summer wheat observed (%) [5]: 50% | Summer wheat observed (%) [6]: 50%

CCc1cc(C)cc(C)c1C1=C(O)C2(CCCCC2)CC1=O [I-a-3]
Summer barley observed (%) [1]: 15% | Summer barley observed (%) [2]: 20% | Summer wheat observed (%) [4]: 25% | Summer wheat observed (%) [5]: 25%

CCc1cc(CC)c(C2=C(O)C3CCCCC3C2=O)c(CC)c1 (stereo not shown) [I-a-15]
Summer barley observed (%) [2]: 20% | Summer wheat observed (%) [2]: 20% | Summer barley observed (%) [3]: 30% | Summer wheat observed (%) [3]: 30%

CCc1cc(C)cc(C)c1C1=C(O)C2CCCCCC2C1=O (stereo not shown) [I-a-18]
Summer barley observed (%) [4]: 20% | Summer wheat observed (%) [4]: 60% | Summer barley observed (%) [5]: 50% | Summer wheat observed (%) [5]: 70% | Summer barley observed (%) [6]: 90% | Summer wheat observed (%) [6]: 80%

CCc1cc(C)cc(C)c1C1=C(OC(=O)COC)C2(CCCC2)CC1=O [I-b-11]
Summer wheat observed (%) [2]: 30% | Summer wheat observed (%) [3]: 50%

CCc1cc(C)cc(C)c1C1=C(OC(=O)COC)C2CCCCC2C1=O (stereo not shown) [I-b-13]
Summer barley observed (%) [7]: 10% | Summer wheat observed (%) [7]: 20% | Summer barley observed (%) [4]: 20% | Summer wheat observed (%) [4]: 70% | Summer barley observed (%) [5]: 90% | Summer wheat observed (%) [5]: 85%

CCc1cc(C)cc(C)c1C1=C(OC(=O)COC)C2CCCCC2C1=O (stereo not shown) [I-b-15]
Summer wheat observed (%) [7]: 10% | Summer barley observed (%) [4]: 10% | Summer wheat observed (%) [4]: 30% | Summer barley observed (%) [5]: 30% | Summer wheat observed (%) [5]: 50% | Summer barley observed (%) [6]: 90% | Summer wheat observed (%) [6]: 85%

CCc1cc(C)cc(C)c1C1=C(OC(=O)C(C)C)C2CCCCC2C1=O (stereo not shown) [I-b-16]
Summer barley observed (%) [1]: 20% | Summer wheat observed (%) [1]: 20% | Summer barley observed (%) [2]: 40% | Summer wheat observed (%) [2]: 50% | Summer barley observed (%) [3]: 60% | Summer wheat observed (%) [3]: 60%

CCC(=O)OC1=C(c2c(C)cc(C)cc2CC)C(=O)C2CCCCC12 (stereo not shown) [I-b-21]
Summer barley observed (%) [7]: 5% | Summer wheat observed (%) [7]: 20% | Summer barley observed (%) [4]: 30% | Summer wheat observed (%) [4]: 60% | Summer barley observed (%) [5]: 50% | Summer wheat observed (%) [5]: 70% | Summer barley observed (%) [6]: 95%

CCc1cc(C)cc(CC)c1C1=C(OC(=O)COC)C2(CCCCC2)CC1=O [I-b-33]
Summer wheat observed (%) [1]: 15% | Summer wheat observed (%) [2]: 30% | Summer wheat observed (%) [3]: 65%

CCc1cc(CC)c(C2=C(OC(=O)COC)C3CCCCC3C2=O)c(CC)c1 (stereo not shown) [I-b-42]
Summer barley observed (%) [1]: 20% | Summer wheat observed (%) [1]: 40% | Summer barley observed (%) [2]: 40% | Summer wheat observed (%) [2]: 50% | Summer barley observed (%) [3]: 50% | Summer wheat observed (%) [3]: 50%

CCC(=O)OC1=C(c2c(CC)cc(C)cc2CC)C(=O)C2CCCCC12 (stereo not shown) [I-b-44]
Summer barley observed (%) [1]: 20% | Summer wheat observed (%) [1]: 20% | Summer barley observed (%) [2]: 40% | Summer wheat observed (%) [2]: 40% | Summer barley observed (%) [3]: 40% | Summer wheat observed (%) [3]: 40%

CCOC(=O)OC1=C(c2c(C)cc(C)cc2CC)C(=O)C2CCCCC12 (stereo not shown) [I-c-4]
Summer barley observed (%) [7]: 5% | Summer wheat observed (%) [7]: 10% | Summer barley observed (%) [4]: 10% | Summer wheat observed (%) [4]: 20% | Summer barley observed (%) [5]: 30% | Summer wheat observed (%) [5]: 90% | Summer barley observed (%) [6]: 80% | Summer wheat observed (%) [6]: 95%

CCOC(=O)OC1=C(c2c(CC)cc(C)cc2CC)C(=O)C2CCCCC12 (stereo not shown) [I-c-8]
Summer barley observed (%) [1]: 15% | Summer wheat observed (%) [1]: 50% | Summer barley observed (%) [2]: 20% | Summer wheat observed (%) [2]: 70% | Summer barley observed (%) [3]: 30% | Summer wheat observed (%) [3]: 80%

CCOC(=O)OC1=C(c2c(CC)cc(C)cc2CC)C(=O)C2CCCCC12 (stereo not shown) [I-c-9]
Summer barley observed (%) [7]: 10% | Summer wheat observed (%) [7]: 10% | Summer barley observed (%) [4]: 20% | Summer wheat observed (%) [4]: 30% | Summer barley observed (%) [5]: 40% | Summer wheat observed (%) [5]: 60% | Summer barley observed (%) [6]: 90% | Summer wheat observed (%) [6]: 70%

CCc1cc(C)cc(CC)c1C1=C(OC(=O)OC)C2CCCCC2C1=O (stereo not shown) [I-c-10]
Summer barley observed (%) [4]: 25% | Summer wheat observed (%) [4]: 40% | Summer barley observed (%) [5]: 50% | Summer wheat observed (%) [5]: 80% | Summer barley observed (%) [6]: 90% | Summer wheat observed (%) [6]: 85%

CCc1cc(C)cc(CC)c1C1=C(OC(=O)OC)C2CCCCC2C1=O (stereo not shown) [I-c-14]
Summer wheat observed (%) [7]: 20% | Summer barley observed (%) [4]: 30% | Summer wheat observed (%) [4]: 80% | Summer barley observed (%) [5]: 93% | Summer wheat observed (%) [5]: 95%
